Assay results reported in patent US20250376472A1, “3-(PHENYLSULFONYL)-[1,2,3]TRIAZOLO[1,5A]QUINAZOLIN-5(4H)-ONE DERIVATIVES” (priority 2022, published 2025).

Target: T1, AgrA (Staphylococcus aureus, UniProt P0A0I7)
T1 construct: endogenous in cells; host or cells: S. aureus USA300 strain UAMS-1625 carrying a P3-lacZ reporter plasmid
Assay: cell-based
Design: species or system S. aureus
Conditions: for Ratio IC50 (in presence of HSA)/IC50 (in absence of HSA): 40 mg/mL HSA versus no HSA
Protocol: The inventive compounds are 3-(phenylsulfonyl)-[1,2,3]triazolo[1,5a]quinazolin-5(4h)-one derivatives comprising an N-bound piperazine or homopiperazine at the 8-position of the [1,2,3]triazolo[1,5a]quinazolin-5(4h)-one core, further substituted (on the second nitrogen atom) by an (optionally substituted) acetyl or propionyl amide group. […] Specifically, the reporter gene lacZ (which encodes the protein product β-galactosidase) was transfected into S. aureus with a plasmid under control of the P3 promoter. The compounds were serially diluted in lysogeny broth (LB), and incubated with S. aureus. Following incubation, the S. aureus cells were lysed and treated with 4-methylumbelliferyl-galactopyranoside (MUG). The β-galactosidase produced by expression of lacZ cleaved the MUG into galactopyranose and 4-methylumbelliferone, which was measured by fluorescence.
The resulting reporter strain was used to measure AgrA inhibitory activity as follows. From an overnight culture plate, cells were resuspended in 0.9% (w/v) saline solution and bacterial inoculum was prepared in LB medium with 5×10^5 CFU/ml. Compounds were two-fold serially diluted in LB and 50 μL of this 10× concentrated samples were added into the 96-deep well plate. 500 μL of bacterial suspension was finally added to the compounds or DMSO control. Plates were covered and incubated with shaking at 37° C. After 18 hours incubation, 100 μL was transferred to a new clear 96-well plate and the OD600 was measured using a TECAN Infinite F200 microplate reader to control for growth inhibition. Another 100 μL was transferred to a new black 96-well plate containing 30 μL of lysis buffer (20 mM Tris/HCl, 3 mM MgCl2, 0.5% Tween 20 (v/v), 0.5% NP-40 (v/v)) and the plate was incubated with shaking at 37° C. for 60 min. 20 μL of the substrate MUG (4-Methylumbelliferyl O-D-galactopyranoside) at 0.25 mg/ml was added and the fluorescence (excitation: 360 nm, emission: 450 mu) was measured with a TECAN Infinite F200 microplate reader after 3 hours incubation at 37° C. with shaking. The IC50 was determined using GraphPad PRISM after normalization to DMSO control.

[1] = IC50 at 40 mg/mL HSA, LB medium supplemented with human serum albumin 40 mg/mL
[2] = IC50 without HSA, LB medium, no human serum albumin, 18 hours incubation
[3] = LB medium supplemented with human serum albumin 40 mg/mL
[4] = LB medium, no human serum albumin, 18 hours incubation

T1 sequence (P0A0I7 whole entry): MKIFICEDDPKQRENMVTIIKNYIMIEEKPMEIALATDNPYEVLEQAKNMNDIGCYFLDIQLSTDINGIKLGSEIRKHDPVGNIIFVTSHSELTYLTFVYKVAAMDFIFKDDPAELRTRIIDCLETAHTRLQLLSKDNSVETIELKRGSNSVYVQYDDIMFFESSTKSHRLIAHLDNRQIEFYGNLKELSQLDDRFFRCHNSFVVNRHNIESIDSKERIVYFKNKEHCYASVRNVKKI

Row | SMILES | IC50 [1] | IC50 [2] | Ratio IC50 (in presence of HSA)/IC50 (in absence of HSA) | IC50 at 40 mg/mL HSA [3] | IC50 without HSA [4]
1 | Cc1ccc(S(=O)(=O)c2nnn3c2[nH]c(=O)c2ccc(N4CCN(CC(=O)NCCCN5CCOCC5)CC4)cc23)c(C)c1 [Compound 92] | 16.1 to 80.3 µM | 1.61 to 8.03 µM |  |  | 
2 | CCN1CCCC1CNC(=O)CN1CCN(c2ccc3c(=O)[nH]c4c(S(=O)(=O)c5ccc(C)cc5C)nnn4c3c2)CC1 (stereo not drawn) [Compound 93] | < 16.5 µM | 1.65 to 8.24 µM |  |  | 
3 | Cc1ccc(S(=O)(=O)c2nnn3c2[nH]c(=O)c2ccc(N4CCN(CC(=O)NCCN5CCCC5)CC4)cc23)c(C)c1 [Compound 94] | 16.9 to 84.4 µM | 1.69 to 8.44 µM |  |  | 
4 | Cc1ccc(S(=O)(=O)c2nnn3c2[nH]c(=O)c2ccc(N4CCN(CC(=O)NCCC5CCCN5C)CC4)cc23)c(C)c1 (stereo not drawn) [Compound 95] |  |  | +++ (+++: ratio ≤ 25) | ++ (++: 10 μg/mL < IC50 ≤ 50 μg/mL) | ++ (++: 1 μg/mL < IC50 ≤ 5 μg/mL)
5 | Cc1ccc(S(=O)(=O)c2nnn3c2[nH]c(=O)c2ccc(N4CCN(CC(=O)NCC5CCCO5)CC4)cc23)c(C)c1 (stereo not drawn) [Compound 96] | 17.3 to 86.3 µM | < 1.73 µM |  |  | 
6 | Cc1ccc(S(=O)(=O)c2nnn3c2[nH]c(=O)c2ccc(N4CCN(CC(=O)NCCCN5CCCC5=O)CC4)cc23)c(C)c1 [Compound 97] | 16.1 to 80.5 µM | 1.61 to 8.05 µM |  |  | 
7 | Cc1ccc(S(=O)(=O)c2nnn3c2[nH]c(=O)c2ccc(N4CCCN(CC(=O)NC5CCN(C)CC5)CC4)cc23)c(C)c1 [Compound 102] |  |  | +++ (+++: ratio ≤ 25) | ++ (++: 10 μg/mL < IC50 ≤ 50 μg/mL) | ++ (++: 1 μg/mL < IC50 ≤ 5 μg/mL)
8 | Cc1ccc(S(=O)(=O)c2nnn3c2[nH]c(=O)c2ccc(N4CCCN(CC(=O)NC5CCOCC5)CC4)cc23)c(C)c1 [Compound 103] | < 16.8 µM | 1.68 to 8.42 µM |  |  | 
9 | Cc1ccc(S(=O)(=O)c2nnn3c2[nH]c(=O)c2ccc(N4CCN(CC(=O)Nc5ccccc5)CC4)cc23)c(C)c1 [Compound 104] | 17.5 to 87.5 µM | < 1.75 µM |  |  | 
10 | Cc1ccc(S(=O)(=O)c2nnn3c2[nH]c(=O)c2ccc(N4CCN(CC(=O)NCc5ccccc5)CC4)cc23)c(C)c1 [Compound 106] | 17.1 to 85.4 µM | < 1.71 µM |  |  | 
11 | Cc1ccc(S(=O)(=O)c2nnn3c2[nH]c(=O)c2ccc(N4CCN(CC(=O)NCc5cccc(O)c5)CC4)cc23)c(C)c1 [Compound 108] | 16.6 to 83.1 µM | < 1.66 µM |  |  | 
12 | Cc1ccc(S(=O)(=O)c2nnn3c2[nH]c(=O)c2ccc(N4CCN(CC(=O)NCCc5ccccc5)CC4)cc23)c(C)c1 [Compound 109] | 16.7 to 83.4 µM | < 1.67 µM |  |  | 
13 | Cc1ccc(S(=O)(=O)c2nnn3c2[nH]c(=O)c2ccc(N4CCN(CC(=O)NCc5cccnc5)CC4)cc23)c(C)c1 [Compound 111] | 17 to 85.2 µM | < 1.7 µM |  |  | 
14 | Cc1ccc(S(=O)(=O)c2nnn3c2[nH]c(=O)c2ccc(N4CCN(CC(=O)NCc5ccco5)CC4)cc23)c(C)c1 [Compound 113] | 17.4 to 86.9 µM | < 1.74 µM |  |  | 
15 | Cc1ccc(S(=O)(=O)c2nnn3c2[nH]c(=O)c2ccc(N4CCN(CC(=O)NCc5cocn5)CC4)cc23)c(C)c1 [Compound 114] | 17.3 to 86.7 µM | < 1.73 µM |  |  | 
16 | Cc1ccc(S(=O)(=O)c2nnn3c2[nH]c(=O)c2ccc(N4CCN(CC(=O)NCCn5cccc5)CC4)cc23)c(C)c1 [Compound 115] | 17 to 84.9 µM | < 1.7 µM |  |  | 
17 | Cc1ccc(S(=O)(=O)c2nnn3c2[nH]c(=O)c2ccc(N4CCN(CC(=O)NCCc5cccs5)CC4)cc23)c(C)c1 [Compound 116] | 16.5 to 82.5 µM | < 1.65 µM |  |  | 
18 | Cc1ccc(S(=O)(=O)c2nnn3c2[nH]c(=O)c2ccc(N4CCN(CC(=O)NCCn5ccnc5)CC4)cc23)c(C)c1 [Compound 117] | 17 to 84.8 µM | 1.7 to 8.48 µM |  |  | 
19 | Cc1ccc(S(=O)(=O)c2nnn3c2[nH]c(=O)c2ccc(N4CCCN(CC(=O)Nc5ccccc5)CC4)cc23)c(C)c1 [Compound 122] | 17.1 to 85.4 µM | < 1.71 µM |  |  | 

Row | SMILES | IC50 [1] | IC50 [2] | Ratio IC50 (in presence of HSA)/IC50 (in absence of HSA) | IC50 at 40 mg/mL HSA [3] | IC50 without HSA [4]
20 | Cc1ccc(S(=O)(=O)c2nnn3c2[nH]c(=O)c2ccc(N4CCCN(CC(=O)NCc5ccccc5)CC4)cc23)c(C)c1 [Compound 123] | 16.7 to 83.4 µM | < 1.67 µM |  |  | 
21 | Cc1ccc(S(=O)(=O)c2nnn3c2[nH]c(=O)c2ccc(N4CCN(CC(=O)N5CCC6(CCCC6)C5)CC4)cc23)c(C)c1 [Compound 126] | 16.6 to 82.8 µM | < 1.66 µM |  |  | 
22 | Cc1ccc(S(=O)(=O)c2nnn3c2[nH]c(=O)c2ccc(N4CCN(CC(=O)N5CCC6(CCN(C)CC6)CC5)CC4)cc23)c(C)c1 [Compound 127] | 15.5 to 77.3 µM | < 1.55 µM |  |  | 
23 | Cc1ccc(S(=O)(=O)c2nnn3c2[nH]c(=O)c2ccc(N4CCN(CC(=O)N5CCCC6(CCN(C)CC6)C5)CC4)cc23)c(C)c1 [Compound 128] | 15.5 to 77.3 µM | 1.55 to 7.73 µM |  |  | 
24 | Cc1ccc(S(=O)(=O)c2nnn3c2[nH]c(=O)c2ccc(N4CCN(CC(=O)N5CCN6CCOCC6C5)CC4)cc23)c(C)c1 (stereo not drawn) [Compound 129] |  |  | +++ (+++: ratio ≤ 25) | +++ (+++: IC50 ≤ 10 μg/mL) | +++ (+++: IC50 ≤ 1 μg/mL)
25 | Cc1ccc(S(=O)(=O)c2nnn3c2[nH]c(=O)c2ccc(N4CCN(CC(=O)N5CCN6CCCC6C5)CC4)cc23)c(C)c1 (stereo not drawn) [Compound 130] | < 16.5 µM | < 1.65 µM |  |  | 
26 | Cc1ccc(S(=O)(=O)c2nnn3c2[nH]c(=O)c2ccc(N4CCN(CC(=O)NCCN)CC4)cc23)c(C)c1 [Compound 131] | 18.6 to 92.8 µM | 1.86 to 9.28 µM |  |  | 
27 | Cc1ccc(S(=O)(=O)c2nnn3c2[nH]c(=O)c2ccc(N4CCN(CC(=O)N5CCNCC5)CC4)cc23)c(C)c1 [Compound 134] | < 17.7 µM | 1.77 to 8.85 µM |  |  | 
28 | Cc1ccc(S(=O)(=O)c2nnn3c2[nH]c(=O)c2ccc(N4CCN(CC(=O)N5CCC(N)C5)CC4)cc23)c(C)c1 (stereo not drawn) [Compound 135] | 17.7 to 88.5 µM | 1.77 to 8.85 µM |  |  | 
29 | Cc1ccc(S(=O)(=O)c2nnn3c2[nH]c(=O)c2ccc(N4CCN(CC(=O)NC5CCNC5)CC4)cc23)c(C)c1 (stereo not drawn) [Compound 136] | 17.7 to 88.5 µM | 1.77 to 8.85 µM |  |  | 
30 | Cc1ccc(S(=O)(=O)c2nnn3c2[nH]c(=O)c2ccc(N4CCN(CC(=O)N5CCC(CN)C5)CC4)cc23)c(C)c1 (stereo not drawn) [Compound 137] | 17.3 to 86.4 µM | 1.73 to 8.64 µM |  |  | 
31 | Cc1ccc(S(=O)(=O)c2nnn3c2[nH]c(=O)c2ccc(N4CCN(CC(=O)NC5CNC5)CC4)cc23)c(C)c1 [Compound 138] | 18.2 to 90.8 µM | 1.82 to 9.08 µM |  |  | 
32 | Cc1ccc(S(=O)(=O)c2nnn3c2[nH]c(=O)c2ccc(N4CCN(CC(=O)N5CC(N)C5)CC4)cc23)c(C)c1 [Compound 139] | < 18.2 µM | 1.82 to 9.08 µM |  |  | 
33 | Cc1ccc(S(=O)(=O)c2nnn3c2[nH]c(=O)c2ccc(N4CCN(CC(=O)NC5CCNCC5)CC4)cc23)c(C)c1 [Compound 140] | 17.3 to 86.4 µM | 1.73 to 8.64 µM |  |  | 
34 | Cc1ccc(S(=O)(=O)c2nnn3c2[nH]c(=O)c2ccc(N4CCN(CC(=O)N5CCC(N)CC5)CC4)cc23)c(C)c1 [Compound 141] | < 17.3 µM | 1.73 to 8.64 µM |  |  | 
35 | Cc1ccc(S(=O)(=O)c2nnn3c2[nH]c(=O)c2ccc(N4CCN(CC(=O)NC5CCCNC5)CC4)cc23)c(C)c1 (stereo not drawn) [Compound 142] | < 17.3 µM | 1.73 to 8.64 µM |  |  | 
36 | Cc1ccc(S(=O)(=O)c2nnn3c2[nH]c(=O)c2ccc(N4CCN(CC(=O)N5CCCC(N)C5)CC4)cc23)c(C)c1 (stereo not drawn) [Compound 143] |  |  | +++ (+++: ratio ≤ 25) | +++ (+++: IC50 ≤ 10 μg/mL) | ++ (++: 1 μg/mL < IC50 ≤ 5 μg/mL)
37 | Cc1ccc(S(=O)(=O)c2nnn3c2[nH]c(=O)c2ccc(N4CCN(CC(=O)N5CCCC(CN)C5)CC4)cc23)c(C)c1 (stereo not drawn) [Compound 144] | < 16.9 µM | 1.69 to 8.44 µM |  |  | 
